In patent US12364738B2, “Composition comprising at least one enzyme and at least one microbicidal molecule for the prevention or treatment of post-implant infections” (ONELIFE S.A., priority 2016, dated 2025):
Where two headings read alike, the source gives them in different places. Marks after values point to notes of the source that are not given here.

How the values were obtained:
[1] = cited from earlier work
[2] = system: isolate 1, S. aureus MRSA strain 80124430375 (pacemaker), biofilm; conditions: static model, 24 h biofilm, 24 h treatment, ciprofloxacin 0.15 to 40 mg/L
Procedure: (§1) The measurement was conventionally carried out by absorption photometry (measurement at 590 nm with the Spectramax M4 equipment).
(§2) From each of the isolates given in table 1, biofilms (n=4) were developed over 24 hours at a temperature of 37° C. in the wells of a 96-well plate containing 200 μL of a TSB culture medium (Tryptic Soy Broth VWR) supplemented with 1% glucose and 2% sodium chloride.
(§3) Before proceeding with the measurement of the viability of the bacterial cells with resazurin, the plates containing the developed biofilms were washed with a PBS buffer (pH=7.4) then incubated with resazurin (0.01 mg/L) for 1 hour in the dark.

[3] = system: isolate 3, S. aureus MRSA strain 80124474762 (knee screw), biofilm; conditions: static model, 24 h biofilm, 24 h treatment, ciprofloxacin 0.15 to 40 mg/L
Procedure: as §1, §2, §3

[4] = system: isolate 7, E. faecalis strain 9794 (urinary catheter), biofilm; conditions: static model, 24 h biofilm, 24 h treatment, ciprofloxacin 0.15 to 40 mg/L
Procedure: as §1, §2, §3

[5] = system: isolate 10, P. aeroginosa strain DIV5508 (central venous catheter), biofilm; conditions: static model, 24 h biofilm, 24 h treatment, ciprofloxacin 0.15 to 40 mg/L
Procedure: as §1, §2, §3

[6] = system: isolate 9, E. faecalis strain 9555 (urinary catheter), biofilm; conditions: static model, 24 h biofilm, 24 h treatment, ciprofloxacin 0.15 to 40 mg/L
Procedure: as §1, §2, §3

[7] = system: isolate 8, E. faecalis strain 9781 (urinary catheter), biofilm; conditions: static model, 24 h biofilm, 24 h treatment, ciprofloxacin 0.15 to 40 mg/L
Procedure: as §1, §2, §3

[8] = system: isolate 1, S. aureus isolated from a pacemaker, biofilm; conditions: dynamic model, 48 h biofilm on PEG protrusions, 24 h treatment, agitation 120 RPM
Procedure: (§4) In order to judge the effectiveness of a post-implantation treatment carried out with a composition according to the invention, the viability of the bacteria was measured by following the development of the colour of the resazurin (7-Hydroxy-3H-phenoxazin-3-on 10-oxide), this colour changing according to the redox potential which depends on microbial activity. The measurement was conventionally carried out by absorption photometry (measurement at 590 nm with the Spectramax M4 equipment).
(§5) Before proceeding with the measurement of the viability of the bacterial cells with resazurin, the PEG plates with the protrusions containing the developed biofilms were incubated with resazurin for 2 hours in the dark.

[9] = system: isolate 4, S. epidermis strain 80224420266 (central venous catheter), biofilm; conditions: static model, 24 h biofilm, 24 h treatment, ciprofloxacin 0.15 to 40 mg/L
Procedure: as §1, §2, §3

[10] = system: isolate 2, S. aureus MRSA strain 80224422456 (knee prosthesis), biofilm; conditions: static model, 24 h biofilm, 24 h treatment, ciprofloxacin 0.15 to 40 mg/L
Procedure: as §1, §2, §3

[11] = system: isolate 5, E. coli isolated from a urinary catheter, biofilm; conditions: dynamic model, 48 h biofilm on PEG protrusions, 24 h treatment, agitation 120 RPM
Procedure: as §4, §5

[12] = system: isolate 11, P. aeroginosa strain 04/190 (urinary catheter), biofilm; conditions: static model, 24 h biofilm, 24 h treatment, ciprofloxacin 0.15 to 40 mg/L
Procedure: as §1, §2, §3

[13] = system: isolate 1, S. aureus isolated from a pacemaker, biofilm; assay: Confocal microscopic images with LIVE/DEAD staining, isolate 1; assay type: cell-based; conditions: 24 h biofilm, 24 h treatment, ciprofloxacin 1 mg/L, FIGS. 4 and 5
Procedure: For isolate 1 (S. aureus isolated from a pacemaker on which a biofilm developed in the human body after implantation), confocal images were taken and correspond to FIGS. 3 to 5.
Before obtaining the different images, staining was carried out with the LIVE/DEAD kit (Invitrogen) for 30 minutes before rinsing with a PBS buffer.

[14] = system: isolate 5, E. coli strain 6081 (urinary catheter), biofilm; conditions: static model, 24 h biofilm, 24 h treatment, ciprofloxacin 0.15 to 40 mg/L
Procedure: as §1, §2, §3

[15] = system: isolate 6, E. coli strain 5701 (orthopaedic implant), biofilm; conditions: static model, 24 h biofilm, 24 h treatment, ciprofloxacin 0.15 to 40 mg/L
Procedure: as §1, §2, §3

[16] = serum, after administration of the antibiotic, based on EUCAST, used as test concentration

## COc1c(N2C[C@@H]3CCCN[C@@H]3C2)c(F)cc2c(=O)c(C(=O)O)cn(C3CC3)c12 [moxifloxacin]
[1]; [16]
  Cmax, maximum serum concentration after administration of the antibiotic: 3600 ng/mL
  Cmin, minimum serum concentration: 300 ng/mL

## NCC[C@H](O)C(=O)N[C@@H]1C[C@H](N)[C@@H](O[C@H]2O[C@H](CN)[C@@H](O)[C@H](O)[C@H]2O)[C@H](O)[C@H]1O[C@H]1O[C@H](CO)[C@@H](O)[C@H](N)[C@H]1O [amikacin]
[1]; in vivo
  Cmin, minimum serum concentration: 5000 ng/mL
[1]; [16]
  Cmax, maximum serum concentration after administration of the antibiotic: 24000 ng/mL

## O=C(O)c1cn(C2CC2)c2cc(N3CCNCC3)c(F)cc2c1=O [solution A, ciprofloxacin]
[2]
  Concentration of the antibiotic molecule in a solution comprising the antibiotic alone (solution A) to reduce the viability of the bacteria by 50% (EC50): >40^a mg/L
[3]
  Concentration of the antibiotic molecule in a solution comprising the antibiotic alone (solution A) to reduce the viability of the bacteria by 50% (EC50): 1.2 µg/mL
[4]
  Concentration of the antibiotic molecule in a solution comprising the antibiotic alone (solution A) to reduce the viability of the bacteria by 50% (EC50): >40 µg/mL
[5]
  Concentration of the antibiotic molecule in a solution comprising the antibiotic alone (solution A) to reduce the viability of the bacteria by 50% (EC50): >40 µg/mL
[6]
  Concentration of the antibiotic molecule in a solution comprising the antibiotic alone (solution A) to reduce the viability of the bacteria by 50% (EC50): >40 µg/mL
[7]
  Concentration of the antibiotic molecule in a solution comprising the antibiotic alone (solution A) to reduce the viability of the bacteria by 50% (EC50): >40 µg/mL
[8]
  Concentration of the antibiotic molecule in a solution comprising the antibiotic alone (solution A) to reduce the viability of the bacteria by 50% (EC50): 0.7 µg/mL
[9]
  Concentration of the antibiotic molecule in a solution comprising the antibiotic alone (solution A) to reduce the viability of the bacteria by 50% (EC50): 1.77 µg/mL
[10]
  Concentration of the antibiotic molecule in a solution comprising the antibiotic alone (solution A) to reduce the viability of the bacteria by 50% (EC50): 0.8 µg/mL
[11]
  Concentration of the antibiotic molecule in a solution comprising the antibiotic alone (solution A) to reduce the viability of the bacteria by 50% (EC50): 3.18 µg/mL
[12]
  Concentration of the antibiotic molecule in a solution comprising the antibiotic alone (solution A) to reduce the viability of the bacteria by 50% (EC50): >40 µg/mL
[13]
  live/dead state of the bacteria in confocal images: numerous bacteria are still alive
[14]
  Concentration of the antibiotic molecule in a solution comprising the antibiotic alone (solution A) to reduce the viability of the bacteria by 50% (EC50): 2.7 µg/mL
[1]; [16]
  Cmin, minimum serum concentration: 600 ng/mL
[15]
  Concentration of the antibiotic molecule in a solution comprising the antibiotic alone (solution A) to reduce the viability of the bacteria by 50% (EC50): >40 µg/mL

## NC[C@H]1O[C@H](O[C@H]2[C@H](O)[C@@H](O[C@H]3O[C@H](CO)[C@@H](O)[C@H](N)[C@H]3O)[C@H](N)C[C@@H]2N)[C@H](N)C[C@@H]1O [tobramycin]
[1]; in vivo
  Cmin, minimum serum concentration: 900 ng/mL
[1]; [16]
  Cmax, maximum serum concentration after administration of the antibiotic: 4000 ng/mL

## C[C@@H](O)[C@H]1C(=O)N2C(C(=O)O)=C(S[C@@H]3CN[C@H](C(=O)N(C)C)C3)[C@H](C)[C@H]12 [meropenem]
[1]; in vivo
  Cmin, minimum serum concentration: 100 ng/mL
[1]; [16]
  Cmax, maximum serum concentration after administration of the antibiotic: 20000 ng/mL
